Active and inactive are the calls of the source. How the calls were made is not given here.
The compounds below were run against Crimean-Congo hemorrhagic fever virus L protein viral ovarian tumor (vOTU) protease domain (assay: CCHFV vOTU protease inhibitor potency, dose response, biochemical, fluorescence, Pep-AMC substrate (AID 720578)). Conditions: recombinant CCHFV vOTU, Pep-AMC fluorescence cleavage.

Structure (SMILES)	IC50
CN(C1=C(NC(=O)c2ccccc2)C(=O)c2ccccc2C1=O)C1CCS(=O)(=O)C1 (configuration not stated)	2.43 µM
CC1CCCC(NC(=O)COC(=O)c2ccc([N+](=O)[O-])s2)C1C (configuration not stated)	9.22 µM
Cc1ccc(NC2=C(N3CCCCC3)C(=O)c3ccccc3C2=O)cc1	4.46 µM
COc1cc(Br)c(C(=O)c2nccc3cc(OC)c(OC)cc23)cc1OC	0.27 µM
Cc1oc2c(c1C(=O)N1CCOCC1)C(=O)c1ccccc1C2=O	inactive
c1coc(-c2nnc(-c3ccco3)nn2)c1	9.33 µM
NS(=O)(=O)c1ccc(NC2=CC(=O)C(=O)c3ccccc32)cc1	4.85 µM
O=C(O)c1ccc(S(=O)(=O)/N=C2\C=C(Nc3ccccc3F)C(=O)c3ccccc32)cc1	0.397 µM
Cc1cc(C)c(S(=O)(=O)/N=C2\C=C(Nc3ccc(C(=O)O)cc3)C(=O)c3ccccc32)c(C)c1	1.72 µM
COc1ccc2noc3c2c1C(=O)c1ccccc1-3	3.08 µM
O=C(OCc1nnc(-c2ccccc2)o1)c1ccc([N+](=O)[O-])s1	7.52 µM
Cc1nc2c(o1)C(=O)c1ccccc1C2=Nc1ccccc1	7.89 µM
CC(=O)[C@@H]1[C@@H]2C(=O)N(c3ccc(F)c(Cl)c3)C(=O)[C@@H]2C2c3ccccc3C=CN21 (some centres not stated)	inactive
C[n+]1cccc2cccc([O-])c21	6.41 µM
CC(C)(C)c1cc[n+](C2=C([O-])c3ccccc3C(=O)/C2=N\S(=O)(=O)c2cccs2)cc1	6.78 µM
O=C1C(=O)c2cccnc2-c2ncccc21	5.38 µM
Cc1ccc(NC2=C(N3CCOCC3)C(=O)c3ccccc3C2=O)cc1	4.31 µM
CCCCn1c(NS(=O)(=O)c2ccccc2)c(S(=O)(=O)c2ccc(C)cc2)c2nc3ccccc3nc21	> 115 µM (inactive)
Cc1ccccc1NC1=C/C(=N\S(=O)(=O)c2cccs2)c2ccccc2C1=O	0.249 µM
O=C(O)CSc1cc(NS(=O)(=O)c2ccc(Cl)cc2)c2ccccc2c1O	5 µM
NC1=CC(=O)C(=O)c2cccnc21	1.85 µM
CC[C@H](CO)Oc1cc(NCc2cccc(N)c2)c2ncn(C(C)C)c2c1	6.52 µM
COc1ccc(N2C(=O)[C@@H]3[C@H](C2=O)[C@H]2c4ccccc4C=CN2[C@@H]3C(C)=O)cc1	inactive
Cc1ccccc1NC1=C/C(=N\S(=O)(=O)c2ccc(C(=O)O)cc2)c2ccccc2C1=O	0.257 µM
CC(C)NC1=C(Cl)C(=O)c2ccccc2C1=O	inactive
Cc1cnc(C=NNC(N)=S)c2cccc(N)c12	2.95 µM

Structure (SMILES)	IC50
O=C1C(=O)c2ccccc2-c2ccccc21	2.4 µM
CCc1cc[n+](C2=C([O-])c3ccccc3C(=O)/C2=N\S(=O)(=O)c2cccs2)cc1	4.4 µM
Cc1cnc(C2OCCO2)c2cccc(N)c12	2.56 µM
CN1CCC/C1=C/C=C1\SC(=S)NC1=O	inactive
Cc1ccc(CNc2ccc(O)cc2)cc1	inactive
CC(=O)Nc1ccc(S(=O)(=O)NC2=C(N3CCN(c4ccc(F)cc4)CC3)C(=O)c3ccccc3C2=O)cc1	inactive
CC1=C(SCc2ccccc2)C(=O)c2ccccc2C1=O	2.51 µM
CC(=O)N(C1=C(N)C(=O)c2ccccc2C1=O)c1ccccc1	8.38 µM
O=C1C=C(N2CCCCC2)c2ccccc2C1=O	7.75 µM
O=C1OC(Nc2cc(Br)cc3cccnc23)c2ccccc21 (configuration not stated)	5.23 µM
O=C(/C=C/c1ccc([N+](=O)[O-])s1)N1CCCCC1	inactive
CCn1nc(/C=C/c2ccccc2)nc2c(=O)n(C)c(=O)nc1-2	0.276 µM
COc1ccc(C(C[N+](=O)[O-])c2c(C)[nH]n(-c3ccccc3)c2=O)cc1 (configuration not stated)	inactive
O=C(COC(=O)c1ccc([N+](=O)[O-])s1)Nc1ccccc1	inactive
O=C(NC1=C(NC2CCS(=O)(=O)C2)C(=O)c2ccccc2C1=O)c1ccccc1 (configuration not stated)	3.93 µM
CCCCCCCCCCCCCCCC[n+]1cccc2ccccc21	inactive
COc1cc(C=c2c3ccccc3n3c2cc(-c2ccccc2)[n+]3C)cc(OC)c1OC	6.76 µM
CC(NC1=CC(=O)c2cccnc2C1=O)C(O)c1ccccc1 (configuration not stated)	1.94 µM
CCOC(=O)c1c(C)[nH]c2c1-c1ccccc1C(=O)C2=O	0.323 µM
CN1CCN(C2=C(Cl)C(=O)c3ccccc3C2=O)CC1	0.276 µM
N#CC1=C(S)N(c2ccccc2)C(c2ccc(-c3ccc(Cl)c(Cl)c3)o2)NC1=O (configuration not stated)	inactive
C[n+]1c(-c2ccccc2)c2cc(N)ccc2c2ccc(N)cc21	3.68 µM
COc1cc2c(cc1OC)-c1c(OC)c(OC)cc3c1C(C2)N(C)CC3 (configuration not stated)	> 115 µM (inactive)
COc1cc(NCCCC(C)N)c2ncccc2c1 (configuration not stated)	2.52 µM
CCOC(=O)N1CCN(C2=C(NS(=O)(=O)c3ccc(C)cc3)C(=O)c3ccccc3C2=O)CC1	inactive
O=S(=O)(c1ccc2nc(-c3ccco3)c(-c3ccco3)nc2c1)N1CCOCC1	inactive

Source: PubChem BioAssay AID720578 (The Scripps Research Institute Molecular Screening Center, 2013)
